Reference: the Deep4Chem optical property database
Several values for one entry are separate records, joined by “and”; a condition that tells them apart may be missing. Identical values can stand only once.

Assay: photoluminescence quantum yield (fraction); solvent given as SMILES

With `O=C1c2cccc3c(NCc4ccccn4)c4ccccc4c(c23)C(=O)N1Cc1ccccn1` the photoluminescence quantum yield (in C1CCOC1) was 0.07, the photoluminescence quantum yield (in CCCCCC) was 0.04 and the photoluminescence quantum yield (in CCO) was 0.07. The photoluminescence quantum yield (in Cc1ccccc1) was 0.08 and the photoluminescence quantum yield (in ClCCl) was 0.1.
Work on `Cc1ccc(C2=C3C=CC(c4ccccc4)=[N+]3[B-](F)(F)n3c2ccc3-c2ccccc2)cc1` yielded a photoluminescence quantum yield (in C1CCCCC1) of 0.31, a photoluminescence quantum yield (in C1CCOC1) of 0.22 and a photoluminescence quantum yield (in C1COCCO1) of 0.25. It also gave a photoluminescence quantum yield (in CCOC(C)=O) of 0.2, a photoluminescence quantum yield (in CO) of 0.21 and a photoluminescence quantum yield (in Cc1ccccc1) of 0.42. It also gave a photoluminescence quantum yield (in ClC(Cl)Cl) of 0.31.
With `Cc1ccc(-c2nc(-c3ccc(-c4nc(-c5ccc(C)cc5)c(-c5ccc(C)cc5)[nH]4)cc3)[nH]c2-c2ccc(C)cc2)cc1` the photoluminescence quantum yield (in CS(C)=O) was 0.96.
`COC(=O)C(NC(=O)OC(C)(C)C)c1ccc2oc(-c3ccc(N(C)C)cc3OC)nc2c1` (stereo not given) gave a photoluminescence quantum yield (in CC1CCCCC1) of 0.44, a photoluminescence quantum yield (in CC#N) of 0.88 and a photoluminescence quantum yield (in CO) of 0.97.
Compound `CCOC(=O)c1ccc2c(c1)sc1c3ccc(C(=O)OCC)cc3n(C)c21` has a photoluminescence quantum yield (in CCCO) of 0.65.
`Cc1cc(C)c(C2=C3C=C(c4ccccc4)C(c4ccccc4)=[N+]3[B-](F)(F)n3c2cc(-c2ccccc2)c3-c2ccccc2)c(C)c1` gave a photoluminescence quantum yield (in C1CCCCC1) of 0.94, a photoluminescence quantum yield (in C1CCOC1) of 0.9 and a photoluminescence quantum yield (in CC#N) of 0.87. It also gave a photoluminescence quantum yield (in Cc1ccccc1) of 0.75 and a photoluminescence quantum yield (in ClCCl) of 0.74.
Work on `CC1=C2C=CC(c3ccccc3)=[N+]2[B-](F)(F)n2c1ccc2-c1ccccc1` yielded a photoluminescence quantum yield (in ClCCl) of 0.64.
Compound `COC(=O)C(NC(=O)CCNc1cccc2ccccc12)c1ccccc1` (stereo not given) has a photoluminescence quantum yield (in CCO) of 0.55.
Compound `CC(C)(C)c1ccc(-c2c(-c3ccc(-n4c5ccccc5c5ccccc54)cc3)cc(-c3ccc(-n4c5ccccc5c5ccccc54)cc3)c(-c3ccc(C(C)(C)C)cc3)c2-c2ccc(C(C)(C)C)cc2)cc1` has a photoluminescence quantum yield (in C1CCOC1) of 0.343.
Work on `CC(C)(C)NC(=O)c1ccc(-c2ccc(N3c4ccccc4Oc4ccccc43)cc2)c2ccc3c4ccc(F)cc4c4cc(F)ccc4c3c12` yielded a photoluminescence quantum yield (in ClCCl) of 0.03.
For `CC1(C)c2ccccc2N(c2ccc(-c3cnc(C#N)nc3)cc2)c2ccccc21`, the photoluminescence quantum yield (in Cc1ccccc1) was 0.311 and the photoluminescence quantum yield (in N#Cc1ccc2c(c1)c1ccccc1n2-c1cccc(-n2c3ccccc3c3ccccc32)c1) was 1.
With `CCOC(=O)c1ccc2c(c1)[nH]c1c3ccc(C(=O)OCC)cc3[nH]c21` the photoluminescence quantum yield (in CCCO) was 0.57.
Compound `CC(C)(C)c1ccc2c(c1)c1cc(C(C)(C)C)ccc1n2-c1ccc(N(c2ccc(-c3ccc(-c4ccc(-c5ccc(-c6ccc(N(c7ccc(-n8c9ccc(C(C)(C)C)cc9c9cc(C(C)(C)C)ccc98)cc7)c7ccc(-n8c9ccc(C(C)(C)C)cc9c9cc(C(C)(C)C)ccc98)cc7)cc6)cc5)c5nsnc45)cc3)cc2)c2ccc(-n3c4ccc(C(C)(C)C)cc4c4cc(C(C)(C)C)ccc43)cc2)cc1` has a photoluminescence quantum yield (in ClCCl) of 0.03.
Work on `C[Si]1(C)c2cc(C#Cc3ccccc3)ccc2C=Cc2ccc(C#Cc3ccccc3)cc21` yielded a photoluminescence quantum yield (in ClCCl) of 0.77.
Compound `COc1ccc(C2=Cc3c4ccccc4cc[n+]3[B-](F)(F)O2)cc1` has a photoluminescence quantum yield (in ClC(Cl)Cl) of 0.313.
With `O=C(c1ccc(-n2c3ccccc3c3cc(-n4c5ccccc5c5ccccc54)ccc32)cc1)c1ccc(-n2c3ccccc3c3cc(-n4c5ccccc5c5ccccc54)ccc32)cn1` the photoluminescence quantum yield (in Cc1ccccc1) was 0.38 and the photoluminescence quantum yield (in O=P(c1ccccc1)(c1ccccc1)c1ccccc1Oc1ccccc1P(=O)(c1ccccc1)c1ccccc1) was 0.73.
Compound `CCCCCCCC[n+]1ccc(-c2cc[n+](CCCCCCCC)cc2)cc1` has a photoluminescence quantum yield (in CC#N) of 0.009.
Compound `S=c1[nH]nc(-c2ccc(/C=C/c3ccc(-c4n[nH]c(=S)o4)cc3)cc2)o1` has a photoluminescence quantum yield (in CN(C)C=O) of 0.33.
In the case of `COCCOCCOCCOCCOc1cc(C=O)c(OCCOCCOCCOCCOC)cc1C=O`, the photoluminescence quantum yield (in CC(C)(C)O) is reported as 0.12, the photoluminescence quantum yield (in CC(C)CO) is reported as 0.1 and the photoluminescence quantum yield (in CC(C)O) is reported as 0.11. It also gave a photoluminescence quantum yield (in CCCCO) of 0.09, a photoluminescence quantum yield (in CCCO) of 0.14 and a photoluminescence quantum yield (in CCO) of 0.18. The photoluminescence quantum yield (in CN(C)C=O) was 0.04, the photoluminescence quantum yield (in CNC=O) was 0.05 and the photoluminescence quantum yield (in CO) was 0.22. For the same compound, the photoluminescence quantum yield (in NC=O) was 0.31 and the photoluminescence quantum yield (in O) was 0.55.
`COc1cc(C(=O)O)cc(OC)c1O` gave a photoluminescence quantum yield (in O) of 0.009.
`Cc1cc(C)c(-c2nnc(-c3ccc(-n4c5ccccc5c5ccccc54)cc3)o2)c(C)c1` showed a photoluminescence quantum yield (in Cc1ccccc1) of 0.59.
With `COc1ccccc1C1=[N+]2C(=C(c3ccc(I)cc3)c3ccc(-c4ccccc4OC)n3[B-]2(F)F)C=C1` the photoluminescence quantum yield (in ClC(Cl)Cl) was 0.08 and 0.07.
In the case of `CN(C)c1ccc(/C=C/C=N/N=C/c2ccc3ccc4cccc5ccc2c3c45)cc1`, the photoluminescence quantum yield (in CC#N) is reported as 0.032, the photoluminescence quantum yield (in CC(C)(C)O) is reported as 0.02 and the photoluminescence quantum yield (in CC(C)=O) is reported as 0.01. The photoluminescence quantum yield (in CC(C)O) was 0.015, the photoluminescence quantum yield (in CCCCO) was 0.018 and the photoluminescence quantum yield (in CO) was 0.025. For the same compound, the photoluminescence quantum yield (in CS(C)=O) was 0.044, the photoluminescence quantum yield (in ClC(Cl)Cl) was 0.007 and the photoluminescence quantum yield (in ClCCl) was 0.008. The photoluminescence quantum yield (in O) was 0.016.
Compound `CCn1c2ccsc2c2c3nsnc3c3c4sccc4n(CC)c3c21` has a photoluminescence quantum yield (in C1CCOC1) of 0.68, a photoluminescence quantum yield (in CCOC(C)=O) of 0.63 and a photoluminescence quantum yield (in CN(C)C=O) of 0.42. It also gave a photoluminescence quantum yield (in Cc1ccccc1) of 0.73 and a photoluminescence quantum yield (in ClCCl) of 0.33.
With `O=Cc1ccc2c(c1)c1ccccc1n2-c1cc2ccccc2c2ccccc12` the photoluminescence quantum yield (in CC#N) was 0.015, the photoluminescence quantum yield (in CCCCC) was 0.025 and the photoluminescence quantum yield (in Cc1ccccc1) was 0.022. For the same compound, the photoluminescence quantum yield (in ClCCl) was 0.03.
`CN(C)c1ccc2cc(C3=[O+][B-](F)(F)OC(c4ccccc4)=C3)ccc2c1` gave a photoluminescence quantum yield (in C1CCOC1) of 0.1, a photoluminescence quantum yield (in CC#N) of 0.007 and a photoluminescence quantum yield (in CC(C)=O) of 0.01. It also gave a photoluminescence quantum yield (in CS(C)=O) of 0.005, a photoluminescence quantum yield (in Cc1ccccc1) of 0.97 and a photoluminescence quantum yield (in ClC(Cl)Cl) of 0.9. It also gave a photoluminescence quantum yield (in ClCCl) of 0.13.
`N#Cc1cc(-n2c3ccccc3c3ncccc32)c(-n2c3ccccc3c3ncccc32)cc1C#N` gave a photoluminescence quantum yield (in c1cc(-n2c3ccccc3c3ccccc32)cc(-n2c3ccccc3c3ccccc32)c1) of 0.93.
In the case of `COc1cc(/C=C/c2ccccc2)cc(OC)c1`, the photoluminescence quantum yield (in C1CCCCC1) is reported as 0.18, the photoluminescence quantum yield (in CC#N) is reported as 0.32 and the photoluminescence quantum yield (in CC(C)O) is reported as 0.27. For the same compound, the photoluminescence quantum yield (in CCCCOCCCC) was 0.26, the photoluminescence quantum yield (in CCOC(C)=O) was 0.29 and the photoluminescence quantum yield (in CCOCC) was 0.27.
For `F[B-]1(F)n2c(cc(Br)c2Br)C(c2ccccc2)=C2C=C(Br)C(Br)=[N+]21`, the photoluminescence quantum yield (in ClC(Cl)Cl) was 0.98.
For `Cc1nc2c(ccc3c2sc(/C=C/c2ccc(N(CCO)CCO)cc2)[n+]3C)s1`, the photoluminescence quantum yield (in CO) was 0.023 and the photoluminescence quantum yield (in ClC(Cl)Cl) was 0.02.
Compound `N#Cc1c(-n2c3ccc(Br)cc3c3cc(Br)ccc32)c(C#N)c(-n2c3ccc(Br)cc3c3cc(Br)ccc32)c(-n2c3ccc(Br)cc3c3cc(Br)ccc32)c1-n1c2ccc(Br)cc2c2cc(Br)ccc21` has a photoluminescence quantum yield (in Cc1ccccc1) of 0.67.
With `Cc1ccc(O)c(-c2[nH]c(=O)n3c2-c2ccccc2C3=O)c1` the photoluminescence quantum yield (in CC#N) was 0.51, the photoluminescence quantum yield (in CO) was 0.25 and the photoluminescence quantum yield (in ClCCl) was 0.62.
In the case of `CCCN1/C(=C/C=C(/C=C/c2sc3ccccc3[n+]2CCC)c2ccc([N+](=O)[O-])cc2)C(C)(C)c2ccccc21`, the photoluminescence quantum yield (in CO) is reported as 0.03, the photoluminescence quantum yield (in CS(C)=O) is reported as 0.03 and the photoluminescence quantum yield (in O) is reported as 0.06.
Compound `O=C1C2=C(O[B-](F)(F)[n+]3c2ccc2ccccc23)c2ccc(N3CCOCC3)c3cccc1c23` has a photoluminescence quantum yield (in C1CCOC1) of 0.55, a photoluminescence quantum yield (in CC#N) of 0.49 and a photoluminescence quantum yield (in CCO) of 0.46. The photoluminescence quantum yield (in CO) was 0.45 and the photoluminescence quantum yield (in ClCCl) was 0.53.
With `CCCCCCN1C(=O)c2cccc3c(-c4ccc(Cl)s4)ccc(c23)C1=O` the photoluminescence quantum yield (in ClC(Cl)Cl) was 0.18.
For `Cc1cc2c(o1)c(Br)cc1c(C)cc(=O)oc12`, the photoluminescence quantum yield (in C1CCCCC1) was 0.0004, the photoluminescence quantum yield (in C1COCCO1) was 0.002 and the photoluminescence quantum yield (in CC#N) was 0.0014. It also gave a photoluminescence quantum yield (in CCO) of 0.005 and a photoluminescence quantum yield (in OCC(F)(F)F) of 0.005.
`CCN(CC)c1ccc(C(=C(c2ccccc2)c2ccc(B(c3c(C)cc(C)cc3C)c3c(C)cc(C)cc3C)cc2)c2ccc(N(CC)CC)cc2)cc1` showed a photoluminescence quantum yield (in C1CCOC1) of 0.19.
In the case of `O=C1NC(=O)c2ccc3c4ccc5c6c(ccc(c7ccc1c2c73)c64)C(=O)N(c1ccc(O)cc1)C5=O`, the photoluminescence quantum yield (in CN(C)C=O) is reported as 0.15.
In the case of `O=C1c2ccc(-c3ccc(N(c4ccc(-c5ccccc5)cc4)c4ccc(-c5ccccc5)cc4)cc3)cc2C(=O)c2ccc(-c3ccc(N(c4ccc(-c5ccccc5)cc4)c4ccc(-c5ccccc5)cc4)cc3)cc21`, the photoluminescence quantum yield (in Cc1ccccc1) is reported as 0.62 and the photoluminescence quantum yield (in c1ccc2c(c1)c1ccccc1n2-c1ccc(-c2ccc(-n3c4ccccc4c4ccccc43)cc2)cc1) is reported as 0.76.
For `CCN(CC)c1ccc2cc(C#N)/c(=N\C(=O)c3ccccc3)oc2c1`, the photoluminescence quantum yield (in CCO) was 0.033 and the photoluminescence quantum yield (in ClCCl) was 0.87.
In the case of `Cc1nc2cc3c4c(cccc4c2o1)C(=O)OC3=O`, the photoluminescence quantum yield (in CCO) is reported as 0.1.
Compound `Fc1ccc(-c2cc3c4c(c2)CCc2cc(-c5ccc(F)cc5)cc(c2-4)CC3)cc1` has a photoluminescence quantum yield (in C1CCCCC1) of 0.48, a photoluminescence quantum yield (in C1CCOC1) of 0.81 and a photoluminescence quantum yield (in CC#N) of 0.19. For the same compound, the photoluminescence quantum yield (in CCCCCC) was 0.55, the photoluminescence quantum yield (in CCO) was 0.18 and the photoluminescence quantum yield (in CN(C)C=O) was 0.56. For the same compound, the photoluminescence quantum yield (in CO) was 0.24, the photoluminescence quantum yield (in Cc1ccccc1) was 1 and the photoluminescence quantum yield (in ClC(Cl)Cl) was 0.55. It also gave a photoluminescence quantum yield (in ClCCl) of 1.
Work on `CC(C)(C)c1ccc(C2=C(c3ccc(N(c4ccccc4)c4ccccc4)cc3)S(=O)(=O)c3c2sc(-c2ccc(N(c4ccccc4)c4ccccc4)cc2)c3-c2ccc(C(C)(C)C)cc2)cc1` yielded a photoluminescence quantum yield (in C1CCOC1) of 0.442.
For `CCCN1c2ccccc2Sc2cc(/C=C\c3cc(=O)oc4cc(NC(=O)OCC)ccc34)ccc21`, the photoluminescence quantum yield (in ClC(Cl)Cl) was 0.62.
In the case of `CCCCCCOc1ccc2oc3c(c2c1)=CC1=C(c2ccccc2C)c2cc4c5cc(OCCCCCC)ccc5oc4n2[B-](F)(F)[N+]=31`, the photoluminescence quantum yield (in C1CCCCC1) is reported as 0.96, the photoluminescence quantum yield (in CCOC(C)=O) is reported as 0.73 and the photoluminescence quantum yield (in CO) is reported as 0.29.
`COc1ccc(N(c2ccc(C=C(c3ccccc3)c3ccccc3)cc2)c2ccc(OC)cc2)cc1` showed a photoluminescence quantum yield (in Cc1ccccc1) of 0.01.
For `Cc1cc2nc3c(=O)[nH]c(=O)nc-3n(C)c2cc1C`, the photoluminescence quantum yield (in CC#N) was 0.16.
For `COc1ccc2cc(C3=[N+]4C(=Nc5c(-c6ccc7ccccc7c6)cc(-c6ccc7cc(OC)ccc7c6)n5[B-]4(F)F)C(c4ccc5ccccc5c4)=C3)ccc2c1`, the photoluminescence quantum yield (in ClCCl) was 0.29.
In the case of `CC(=O)c1c(N[C@@H](Cc2ccc(O)cc2)C(=O)O)c2ccc(N(C)C)cc2oc1=O`, the photoluminescence quantum yield (in ClCCl) is reported as 0.005.
